Species on record: Rattus norvegicus
Assay: Open TG-GATES - Regimen: Daily Repeat
Assay type: toxicity, organism-based, Sprague-Dawley
Parameters: regimen Daily Repeat, gender Male, age 6 weeks
Conditions: in vivo, po, 15 mg/kg, route gavage, dose level Middle; for APTT / Bas / Eos / Fbg / Hb / Ht / Lym / MCH / MCHC / MCV / Mono / Neu / PT / Plat / RBC / Ret / WBC: tissue Blood
[1] = 72 h, tissue Kidney, time 3 day
[2] = 72 h, tissue Plasma, time 3 day

CC(=N)S [THIOACETAMIDE]
TERMINAL_BW (72 h, time 3 day): 220.4 g | APTT (72 h, time 3 day): 16.6 s | Bas (72 h, time 3 day): 0% | Eos (72 h, time 3 day): 1% | Fbg (72 h, time 3 day): 254.2 mg/dL | Hb (72 h, time 3 day): 14 g/dL | Ht (72 h, time 3 day): 42.5% | Lym (72 h, time 3 day): 84% | MCH (72 h, time 3 day): 20.9 pg | MCHC (72 h, time 3 day): 33.1% | MCV (72 h, time 3 day): 63.2 fL | Mono (72 h, time 3 day): 5.2% | Neu (72 h, time 3 day): 9.6% | PT (72 h, time 3 day): 12.2 s | Plat (72 h, time 3 day): 113 x10_4/uL | RBC (72 h, time 3 day): 672.4 x10_4/ul | Ret (72 h, time 3 day): 5.5% | WBC (72 h, time 3 day): 167.1 x10_2/uL | KIDNEY_L [1]: 1 g | KIDNEY_R [1]: 1 g | KIDNEY_TOTAL [1]: 1.9 g | LIVER (72 h, tissue Liver, time 3 day): 11.1 g | A/G [2]: 2.1 | ALP [2]: 896 IU/L | ALT [2]: 29.2 IU/L | AST [2]: 57.2 IU/L | BUN [2]: 17 mg/dL | CRE [2]: 0.5 mg/dL | Ca [2]: 10.5 mg/dL | Cl [2]: 105.8 meq/L | DBIL [2]: 0.02 mg/dL | GLC [2]: 176.2 mg/dL | IP [2]: 7.5 mg/dL | K [2]: 5 meq/L | LDH [2]: 92.8 IU/L | Na [2]: 137.6 meq/L | PL [2]: 159.4 mg/dL | RALB [2]: 3.9 g/dL | TBIL [2]: 0.3 mg/dL | TC [2]: 76.4 mg/dL | TG [2]: 148 mg/dL | TP [2]: 5.8 g/dL | gamma-GTP [2]: 2.4 IU/L | TERMINAL_BW ([…], time 7 day): 248.4 g | TERMINAL_BW ([…], time 14 day): 276.3 g | TERMINAL_BW ([…], time 28 day): 324.2 g | APTT ([…], time 7 day): 16.4 s | Bas ([…], time 7 day): 0% | Eos ([…], time 7 day): 1% | Fbg ([…], time 7 day): 247.2 mg/dL | Hb ([…], time 7 day): 13.9 g/dL | Ht ([…], time 7 day): 42.1% | Lym ([…], time 7 day): 82.8% | MCH ([…], time 7 day): 20.8 pg | MCHC ([…], time 7 day): 33% | MCV ([…], time 7 day): 63 fL | Mono ([…], time 7 day): 5.4% | Neu ([…], time 7 day): 11.2% | PT ([…], time 7 day): 12.7 s | Plat ([…], time 7 day): 108.4 x10_4/uL | RBC ([…], time 7 day): 668.4 x10_4/ul | Ret ([…], time 7 day): 4.5% | WBC ([…], time 7 day): 170.4 x10_2/uL | APTT ([…], time 14 day): 16.4 s | Bas ([…], time 14 day): 0% | Eos ([…], time 14 day): 1% | Fbg ([…], time 14 day): 239.8 mg/dL | Hb ([…], time 14 day): 14.7 g/dL | Ht ([…], time 14 day): 44% | Lym ([…], time 14 day): 79.8% | MCH ([…], time 14 day): 19.7 pg | MCHC ([…], time 14 day): 33.3% | MCV ([…], time 14 day): 59.3 fL | Mono ([…], time 14 day): 7.6% | Neu ([…], time 14 day): 11.8% | PT ([…], time 14 day): 13 s | Plat ([…], time 14 day): 111.2 x10_4/uL | RBC ([…], time 14 day): 743.4 x10_4/ul | Ret ([…], time 14 day): 3.5% | WBC ([…], time 14 day): 202.6 x10_2/uL | APTT ([…], time 28 day): 16.6 s | Bas ([…], time 28 day): 0% | Eos ([…], time 28 day): 1% | Fbg ([…], time 28 day): 240.2 mg/dL | Hb ([…], time 28 day): 15.1 g/dL | Ht ([…], time 28 day): 44.7%

Source: ChEMBL document CHEMBL3885861, “Open TG-GATES”
